Data as given in patent US11440903B2, “Salt form and crystal form of compound as FGFR4 inhibitor and preparation method thereof” (GUANGDONG ZHONGSHENG PHARMACEUTICAL CO., LTD, priority 2017, dated 2022).
Read-outs that look alike come from different tables or passages of the source.

Test: Solubility test in biological media (FaSSIF, FeSSIF, SGF) and water, 37° C.
Assay type: physicochemical
Conditions: for Status (24 h) / solubility at 24 h / pH 24 hours: 37° C.; for Status (24 h): about 4 mg in 2 mL; for solubility at 24 h: salt forms converted to salt concentrations, read-out: Solubility (mg/mL) 24 hours; for pH 24 hours: supernatant; for pH 0 hour: initial
Protocol: Step 1: Preparation of Control Solutions (0.2 mg/mL, calculated by free base)
2 mg the crystal form B of the compound represented by formula (I) (or 2.4 mg the crystal form E of the compound represented by formula (II)) as a control was precisely weighed and placed into a 40 mL glass vial, and a diluent (10 mL) was precisely added. The reaction solution was subjected to ultrasonic treatment for 20 min to sufficiently dissolve, then cooled to room temperature and shaked well. Two control solutions (STD #1, STD #2) were formulated in accordance with this method.
Step 2: Preparation of Linear Solutions
The control solution STD #1 of the crystal form B of the compound represented by formula (I) was 1×, 10×, 100×, 1000× and 2000× (free base LOQ) diluted, and designated as the linear solutions L1, L2, L3, L4 and L5; the control solution STD #1 of the crystal form E of the compound represented by formula (II) was 1×, 10×, 100× and 1000× (methanesulfonate LOQ) diluted, and designated as the linear solutions L1, L2, L3, L4.
Step 3: Solubility Test of the crystal form B of the compound represented by formula (I), the crystal form G of the compound represented by formula (III) and the crystal form E of the compound represented by formula (II) in biological media and water
4 samples (about 4 mg) of each of the crystal form B of the compound represented by formula (I), the crystal form E of the compound represented by formula (II), and the crystal form G of the compound represented by formula (III) were added into 12 glass vials (4 mL), respectively, and then 2 mL different biological media (FaSSIF, FeSSIF, SGF) and water were added into each compound respectively, then mixed homogeneously to form a suspension. The suspension was detected for its initial pH value. A magnet was added into the suspension, and placed on a magnetic stirring heater for stirring (at a temperature of 37° C., in dark). After stirring for 24 h, a sample was taken. The taken sample was quickly centrifuged, and the residual solid was detected by XRPD. The supernatant was detected for its pH value and diluted with a diluent into appropriate multiple, then measured with HPLC for its concentration.
FaSSIF: 1. 0.042 g sodium hydroxide, 0.3438 g sodium dihydrogen phosphate and 0.6186 g sodium chloride were weighed, added into 90 mL purified water, and homogeneously mixed, then, the mixture was adjusted with 1 N hydrochloric acid or 1 N sodium hydroxide to pH=6.5, and diluted into a constant volume of 100 mL with purified water; 2. 50 mL of the buffer described above was taken, and 0.224 g commercially available powder (Biorelevant.com) of FaSSIF/FeSSIF/FaSSGF was added thereto, the mixture was stirred to dissolve, and diluted with purified water to a constant volume of 100 mL.
FeSSIF: 1. 0.404 g sodium hydroxide, 0.865 g glacial acetic acid, and 1.1874 g sodium chloride were weighed, added into 90 mL purified water, and homogeneously mixed, then, the mixture was adjusted with 1 N hydrochloric acid or 1 N sodium hydroxide to pH=5.0, and diluted with purified water to a constant volume of 100 mL, 2. 50 mL of the buffer described above was taken, and 1.12 g commercially available powder (Biorelevant.com) of FaSSIF/FeSSIF/FaSSGF was added thereto, the mixture was stirred to dissolve, and diluted with purified water to a constant volume of 100 mL.
FaSSGF (SGF): 1. 0.2 g sodium chloride was weighed, added into 90 mL purified water, and mixed homogeneously, the mixture was adjusted with 1 N hydrochloric acid to pH=1.8, and diluted with purified water to a constant volume of 100 mL, and stood at room temperature.

[1] = SGF (FaSSGF), pH 1.8, simulated gastric fluid, thermodynamic from solid, SGF
[2] = pH 5, thermodynamic from solid, FeSSIF
[3] = pH 6.5, thermodynamic from solid, FaSSIF
[4] = thermodynamic from solid, Water

| SMILES | Status (24 h) (FaSSIF) | solubility in three types of biological media, conclusion in words (FaSSIF, FeSSIF, SGF) | Status (24 h) (FeSSIF) | solubility at 24 h [1] [mg/mL] | Status (24 h) (SGF) | Status (24 h) (Water) | solubility at 24 h [2] [mg/mL] | solubility at 24 h [3] [mg/mL] | pH 24 hours (FaSSIF) | pH 24 hours (FeSSIF) | pH 24 hours (SGF) | pH 24 hours (Water) | pH 0 hour (suspension in FaSSIF) | pH 0 hour (suspension in FeSSIF) | pH 0 hour (suspension in SGF) | pH 0 hour (suspension in Water) | solubility at 24 h [4] [mg/mL] |
| --- | --- | --- | --- | --- | --- | --- | --- | --- | --- | --- | --- | --- | --- | --- | --- | --- | --- |
| C=CC(=O)N[C@H]1COC[C@H]1Nc1ncc(/C=C(\F)c2c(Cl)c(OC)cc(OC)c2Cl)cn1 [Crystal Form B] | Suspension | good solubility | Suspension | 0.014 | Suspension | Suspension | 0.284 | 0.041 | 7.10 | 5.18 | 2.48 | 7.30 | 7.04 | 4.98 | 2.21 | 8.34 | 0.007 |
| C=CC(=O)N[C@H]1COC[C@H]1Nc1ncc(/C=C(\F)c2c(Cl)c(OC)cc(OC)c2Cl)cn1.CS(=O)(=O)O [Crystal Form E] | Suspension | good solubility | Suspension | 0.041 | Suspension | Suspension | 0.358 | 0.036 | 6.81 | 5.11 | 2.31 | 2.74 | 6.97 | 4.92 | 2.17 | 3.50 | 0.1 |
